Experiment [1] concerns wounds following necrosis and sloughing of spontaneous tumours. As to the kind of experiment: Resolution of wounds after sloughing of spontaneous tumours treated by intratumoural injection, equine. The class given is in vivo. Particulars: for Average days from tumour slough to wound closure: Equine. How it is done: Veterinary clinical data on speed of resolution of wounds that formed following necrosis and sloughing of spontaneous tumours that had been treated by intratumoural injection of Compound 1 (30% 1,2 propanediol formulation at either 0.5 or 1.0 mg/mL concentration) in twenty-four companion animals are summarised in Table 17.
Note that all wounds were managed as open wounds and no bandaging, dressings, lotions or concomitant medications were used in any of these cases.

Experiment [2] relates to TGF-β1-stimulated dermal fibroblasts. The experiment can be described thus: Differentiation of adult dermal fibroblasts into myofibroblasts (α-SMA expression). Type of experiment: cell-based, human. How it is done:
The effects of Compounds […] and 37 on dermal fibroblast differentiation to myofibroblasts was examined by the extent of α-SMA expression by TGF-βi-stimulated dermal fibroblasts.
Following trypsinization, fibroblasts were seeded in 8-well, Permanoxchamber slides (VWR International) in DMEM medium, containing antibiotics, 2 mM L-glutamine and 10% foetal calf serum (250 μL, all purchased from Invitrogen); at a cell density of 2.5×10^4 cells/well and maintained at 37° C. in 5% CO2/95% air for 48 h.
At 48 hr, fibroblasts were growth-arrested in serum-free DMEM for 48 hr and then replaced with serum-free DMEM (250 μL), containing Compounds 1 or 37 at concentrations of 0, 0.001, 0.01, 0.1, 1.0 and 10.0 μg/mL (3 wells/concentration/compound) and TGF-β1 (10 ng/ml, Peprotech). Fibroblasts were maintained at 37° C. in 5% CO2/95% air for 72 hr.
At 72 hr, chamber slide wells were washed with PBS (×1, 250 μL) and fixed in 4% paraformaldehyde (100 μL/well) for 10 min. The chamber slide wells were then washed again with PBS (×1, 250 μl), treated with 0.1% Triton X-100 in PBS (100 μL, Sigma) for 5 min and re-washed with PBS (×1, 250 μL). Wells were blocked with 1% BSA in PBS (250 μL, Sigma) for 1 h and washed (×3) in 0.1% BSA/PBS.
Wells were incubated with monoclonal mouse anti-human α-SMA, clone 1A4 (1:100, 150 ul, Sigma) at 4° C. overnight, washed (×6) in 0.1% BSA/PBS and incubated with Alexa Fluor 488 goat anti-mouse IgG antibody (1:1000, 250 μL, Invitrogen), at room temperature for 1 h, under darkness. Chamber slides were washed (×6) in 0.1% BSA/PBS and counterstained with Hoescht 33258 solution for 30 min under darkness (1:2000, 250 μL, Sigma). Chamber were subsequently removed for slides and treated with Fluorsave (Santa Cruz) for 10 min under darkness. Slides were viewed by fluorescence microscopy (Leica Microsystem), with digital images being capturedat ×200 magnification. Digital images were processed using HC Image J Software.

With `CC=C(C)C(=O)OC1C(C)C2(O)C(C3OC3(CO)C(O)C3(O)C(=O)C(C)=CC32)C2C(C)(C)C12OC(=O)C(C)CC` (centres unmarked) [Compound 1, 12-tigloyl-13-(2-methylbutanoyl)-6,7-epoxy-4,5,9,12,13,20-hexahydroxy-1-tigliaen-3-one], the “No. of horses: Tissue deficit at wound site, Minor” value in experiment [1] (5 to 10% tissue deficit across the original wound area) was determined as 0. In experiment [1] (<5% tissue deficit across the original wound area), the “No. of horses: Tissue deficit at wound site, Nil or minimal” value is given as 6. Further, the “No. of horses: Tissue deficit at wound site, Substantial” value in experiment [1] (>10% tissue deficit across the original wound area) worked out at 0. In experiment [1] (wound size class 0.25 to 9 cm^2, 4 cases), the “Average days from tumour slough to wound closure” value was 20 ± 12 days. For the same compound, the “Average days from tumour slough to wound closure” value in experiment [1] (wound size class 9 to 50 cm^2, 2 cases) came to 53 ± 22 days. In experiment [1] (Hair covers <50% of original wound area), the “No. of horses: Hair regrowth on wound area, Sparse” value amounted to 0. The “No. of horses: Hair regrowth on wound area, Partial” value in experiment [1] (Hair covers >50% of original wound area) is on record as 1. For the same compound, the “No. of horses: Hair regrowth on wound area, Full” value in experiment [1] (Hair covers >95% of original wound area) was determined as 5. In addition, the “No. of horses: Scarring & skin thickening, Minor” value in experiment [1] (Localised scar covering <10% of original wound area) came out at 1. In experiment [1] (Scarring covering >10% of original wound area), the “No. of horses: Scarring & skin thickening, Substantial” value is listed as 1. Further, the “No. of horses: Scarring & skin thickening, Nil or minimal” value in experiment [1] (Scarring not obvious visually or by touch) is 4. Further, in experiment [1] (healed wound site), the “No. of horses: Change in hair colour, No” value is 3; the “No. of horses: Change in hair colour, Yes” value amounted to 3; the “No. of horses: Skin pigmentation, Hyperpigmentation” value was determined as 1; the “No. of horses: Skin pigmentation, Hypopigmentation” value was determined as 1. Also, in experiment [1] (healed wound site), the “No. of horses: Skin pigmentation, Normal” value came out at 3 and the “No. of horses: Skin pigmentation, Patchy” value is on record as 1. In experiment [2] (0.001 to 10.0 μg/mL, 72 hr), the “differentiation of TGF-β1-treated adult dermal fibroblasts into myofibroblasts” value is “affected differentiation into myofibroblasts in a concentration-dependent manner”. Also, the “α-SMA stress fibre formation and polygonal cellular morphology (myofibroblast differentiation)” value in experiment [2] (TGF-β1 10 ng/ml, 72 hr, 0.1 μg/mL) is “lacked the α-SMA stress fibre formation and the typical polygonal cellular morphology”. Also, the myofibroblast morphology result in experiment [2] (between 1 and 10 μg/mL) is “subtle alterations in myofibroblast morphology”.

The values are drawn from patent publication US10822317B2, “Methods and compositions for wound healing” (QBiotics Limited, priority 2013, dated 2020).
